Reference: patent US20170239289A1, “TREATMENT OF INFLAMMATION, RESPIRATORY TRACT INFECTIONS AND CYSTIC FIBROSIS” (Advanced Inhalation Therapies (AIT) Ltd., priority 2014, published 2017)
“Also recorded” adds a separate entry of the source.

How the values were obtained:
[1] = test system: human subjects diagnosed with cystic fibrosis; assay: Example 4: CF study, 160 ppm NO 30 min 3x daily for 10 treatment days; safety; format: in vivo
Method: In addition to their standard care, subjects were administered three 30-minute inhalations per day of 160 ppm NO (with O2/air) for 10 working days (i.e., 5 days on treatment, 2 days off treatment, 5 days on treatment, for a total of 10 treatment days and 30 inhalations).
A minimum time interval of 3.5 hours from the end of one treatment to the beginning of the next treatment was required.
As a safety measure, during NO administration, human subjects' MetHb and 02 saturation levels in the blood were monitored utilizing a commercial “off the shelf” co-oxymeter (Masimo Corporation Model RAD-57/RAD 87).
In the event of MetHb greater than 5% or O2 saturation less than or equal to 88%, treatment was temporarily discontinued, and measure repeated 30 minutes later. If value(s) had returned to above the safety threshold, the next inhalation was started according to protocol. In any case of a second episode of MeHb greater than 5%, study treatment was to be permanently discontinued.
Primary Endpoints—Safety and Tolerability: • Safety • Determine the MetHb levels during treatment with inhaled NO • Determine other AEs associated with inhaled NO • Tolerability • Proportion of subjects (%) who prematurely discontinued the study or study treatment for any reason • Proportion of subjects (%) who prematurely discontinued the study treatment due to AEs or SAEs • Proportion of subjects (%) who prematurely discontinued the study treatment due to AEs or SAEs associated with inhaled NO
All measured variables and derived parameters were listed individually and tabulated by descriptive statistics. For categorical variables, summary tables were provided giving sample size, absolute and relative frequency. For continuous variables, summary tables were provided giving sample size, arithmetic mean, SD, median, minimum and maximum and 95% CI for means of variables. For the ITT cohort, the LOCF approach was applied, when deemed appropriate, to account for missing data at or prior to study termination. Methemoglobin was summarized in appropriate descriptive tables. The percent of subjects with MetHb level greater than 5% was calculated per time point. Changes from baseline in MetHb levels were analyzed using Signed rank test for two means. Laboratory results were summarized in appropriate tables by time. Changes from baseline were calculated and presented as well.

C-reactive protein (CRP) = assay: Example 1: CRP levels in CF subjects treated with 160 ppm NO; format: in vivo, human; settings: three subjects with baseline CRP greater than 5 mg/L
Method: (§1) NO was administered via inhalation to nine clinically stable human subjects diagnosed with, or suffering from CF from two medical centers. Patients received three daily 30-minute treatments of 160 ppm NO with at least 3.5 hours between treatments, for 5 days per week over a two-weeks time period.
(§2) Preliminary efficacy measures included determination of microbial density in sputum and measurements of forced exhaled volume at 1 second (FEV1). Inflammation associated with C-reactive protein (CRP) levels was assessed as a secondary outcome measure. Other inflammation biomarkers, such as interleukins, were also monitored (data not shown).

A. fumigatus = assay: Example 1: microbial density in sputum (CFU) during NO inhalation; format: in vivo; settings: Patient 3 (CFSCH03)
Method: as §1, §2
(§3) Bacterial load was measured for exemplary, non-limiting selection of species that included, P. alcaligenes, methicillin-sensitive Staphylococcus aureus (MSSA), Achromobacter spp., A. fumigates, non-mucoid P. aeruginosa and mucoid P. aeruginosa.

P. alcaligenes = assay: as above; format: in vivo; settings: Patient 1 (CFSCH01), by Day 9
Method: as §1, §2, §3

mucoid P. aeruginosa = assay: as above; format: in vivo; settings: Patient 4 (CFSCH04)
Method: as §1, §2, §3

Achromobacter spp. = assay: as above; format: in vivo; settings: Patient 3 (CFSCH03)
Method: as §1, §2, §3

nonmucoid P. aeruginosa = assay: as above; format: in vivo; settings: Patient 4 (CFSCH04)
Method: as §1, §2, §3

[2] = test system: human subjects diagnosed with acute bronchiolitis; assay: Example 3: randomized bronchiolitis study, infants 2-12 months; 160 ppm NO 30 min 5x daily up to 5 days plus O2 vs O2 alone; safety and tolerability; format: in vivo
Text: Eligible subjects were randomized (1:1) to receive intermittent NO and standard treatment with O2 (hereafter referred to as NO treatment) or standard treatment with O2 (hereafter referred to as standard treatment) alone for a treatment period of up to 5 days. During treatment, MetHb and O2 saturation levels were continuously monitored using a dedicated monitor.
In addition to standard supportive O2 treatment which was initiated prior to randomization, subjects in the NO group were given five 30 minute inhalations per day of 160 ppm NO, at intervals of 3 to 4 hours, until subject improvement led to a physician decision of fit to discharge, to a maximum of 25 inhalations over 5 consecutive days. Inhalations were administered via hospital face masks (Hospiltak, Unomedical Inc).
All subjects in the control group were managed with standard supportive O2 treatment in the same way as the active treatment group, but without actual NO administration.
Methemoglobin and O2 saturation levels were also continuously monitored using a dedicated monitor. In the event of MetHb>5% or O2 saturation less than 89%, treatment was temporarily discontinued, and measurement repeated 30 minutes later. If value(s) had returned to within the safety threshold, the next inhalation was started according to protocol. In any case of a second episode of MeHb greater than 5%, study treatment was to be permanently discontinued.
Primary Endpoints—Safety and Tolerability: • Safety: • Determine the MetHb percentage associated with inhaled NO • Determine AEs associated with inhaled NO • Tolerability: • Proportion of subjects (%) who prematurely discontinued the study or study treatment for any reason • Proportion of subjects (%) who prematurely discontinued the study treatment due to AEs

[3] = over the study treatment period

## [N]=O [NO, nitric oxide]
[1]; N=9
  AEs of MetHb elevation greater than 5% or NO2 elevation greater than 5 ppm: no AEs
  AEs possibly or probably related to treatment, % of subjects: 22.2%
  Adverse events reported by, % of subjects: 55.5%
  Severe or serious AEs: no severe or serious AEs
  maximum MetHb level: 4.6%
[1]; N=9, 20 events in a single subject (SC-01)
  total AEs reported: 31
[1]; entire study treatment period, N=9
  Subjects with MetHb greater than 5%: no subjects
[1]; in 2 subjects, all events mild
  cases of haemoptysis: 7 cases
[1]; [3]
  Cumulative effect on MetHb levels: no “cumulative” effect; also recorded: no cumulative effect
C-reactive protein (CRP)
  reduction in CRP levels after treatment: 40-60%
A. fumigatus
  A. fumigatus CFU counts: elimination
P. alcaligenes
  decrease in P. alcaligenes CFUs: 2 log
Mucoid P. aeruginosa
  decrease in mucoid P. aeruginosa counts: 2 log
Achromobacter spp.
  decrease in Achromobacter spp. CFU: 1 log
Nonmucoid P. aeruginosa
  decrease in nonmucoid P. aeruginosa counts: 1 log
[2]; after end of 30 min treatment
  Time for MetHb to approach pre-treatment levels: approximately 3 hours
[2]; all randomized
  Completed entire treatment and study duration, % of subjects: 90.5%
  Early discontinuation of study: (0.0%)
  Early discontinuation of study, withdrawal of consent: (0.0%)
  Early discontinuation of treatment due to AE: (4.8%)^(1)
  Early discontinuation of treatment due to SAE: (0.0%)
  Early discontinuation of treatment only: (9.5%)
  Early discontinuation of treatment, Physician/Investigator decision: (4.8%)^(3)
  Subjects that discontinued study treatment or discontinued the study: (9.5%)
[2]; all randomized, listed as NO and Standard Treatment (O2)
  Completed entire treatment and study duration, % of subjects: (90.5%)
[2]; during the study treatment period
  Subjects with any MetHb measurement greater than 5%: 28.6%
[2]; human, in vivo, 160 ppm
  Serious adverse events reported by: 4 subjects
  Subjects reporting at least 1 AE: 47.6%
[2]; in vivo
  Deaths during the study: no deaths
[2]; one subject (Subject 44)
  maximum MetHb: 5.6%
[2]; [3]
  Cumulative effect on MetHb levels: no “cumulative” effect; also recorded: no cumulative effect
